Data: US9682965B2, “Fumagillol heterocyclic compounds and methods of making and using same” (Zafgen, Inc., priority 2015, dated 2017)
Where a name gives a salt, the structure may show the parent alone. Read-outs that look alike come from different tables or passages of the source.

Key:
[1] = tested on: Male Sprague Dawley rats on high fat diet; test: 11 day rat DIO model (body weight, food intake, hematology, blood chemistries); type: in vivo; settings: 264 h, read-out: DIO Rat 11-day weight loss vs vehicle
In short: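 Male Sprague Dawley rats on 45% high-fat diet, acclimated 3 days to vehicle injections, then given compound (0.03-1.0 mg/kg) or vehicle (10% DMSO in water) sc once daily for 11 days. Body weight and food intake recorded daily. Blood taken about 2 h after the final dose for hematology and chemistry.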

[2] = tested on: pregnant Sprague Dawley rats (embryo/fetal development)
Description: Study Summary Rat Embryofetal:
The objective of this study design was to evaluate the potential effects of disclosed compounds on embryo/fetal development when given subcutaneously to pregnant rats once every three days during the critical period of organogenesis (Gestation Days 6-18). Female, Sprague Dawley rats, approximately 10 weeks of age, time bred, were ordered from a certified vendor and housed individually housed in stainless steel cages suspended over flush pans, on a 12-hour light-dark cycle (0700-1900) at 20-26° C. and 30-70% humidity. Rats were fed a standard rodent chow and provided water ad libitum. Rats were received and housed in the facility for a period of approximately 1 to 2 days.
Compounds were formulated using 100% DMSO mixed in Sterile Water for Injection, resulting in 2% DMSO solution in water. If necessary, due to limited solubility of a test article, a higher percentage of DMSO solution in water was used. Groups of 8 mated and presumed pregnant female rats were given subcutaneous doses of vehicle or test article, once every three days, beginning on Gestation Day 6 and ending on Gestation Day 18 (Days 6, 9, 12, 15, and 18), maintained two more days, and then euthanized and necropsied on Gestation Day 20. Body weights was recorded for all animals on Gestation Days 5 (purpose of randomization), 6, 9, 12, 15, 18, and 20 (scheduled euthanasia). Food consumption by weight was recorded on Gestation Days 6, 9, 12, 15, 18, and 20 (scheduled termination).
At necropsy, the dams were examined visually for external abnormalities including palpable masses. The abdominal, thoracic, and cranial cavities and their contents were examined for abnormalities and findings will be recorded. The reproductive tract were examined to record the number of ovarian corpora lutea, the number and location of uterine implantation sites noting the position of the cervix, and the number of early resorptions, late resorptions, live fetuses, and dead fetuses. For dead fetuses and late resorptions, crown-to-rump length and weight were recorded, if possible, and the fetus was discarded. For viable fetuses, weight, sex, and grossly visible external abnormalities were recorded.

[3] = tested on: Diet Induced Obese (DIO) C57BL/6 mice; test: 10 day DIO mouse model (body weight, food intake, hematology, blood chemistry); type: in vivo; settings: 240 h, read-out: DIO Mouse 10-day weight loss vs vehicle; for inhibition in vivo at 0.1 mg/kg: 0.1 mpk sc; for inhibition in vivo at 1 mg/kg: 1.0 mpk sc
In short: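 DIO C57BL/6 mice on 60% kcal fat diet received compounds subcutaneously once daily for 10 days at 1.0, 0.5, 0.3, 0.1 or 0.03 mpk, in 10% DMSO in water, after 3-day vehicle acclimation. Body weight and food intake were recorded daily. Hematology and blood chemistry were taken on Day 11, 24 h post-final dose.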

recombinant human MetAP2 = recombinant human MetAP2 (Homo sapiens (Human), UniProt P50579); test: recombinant human MetAP2 enzyme inhibition assay; type: biochemical
Protocol: Compounds are tested for their capacity to inhibit recombinant human MetAP2 activity using the following assay.
Flag tagged Human recombinant MetAP2 expressed and isolated for use as the enzyme source. 10 mM stock solutions of compounds were prepared in 100% DMSO and further diluted in 100% DMSO required concentration to 1 mM stocks. The stock compound solutions and DMSO vehicle controls were diluted to target final compound concentrations using assay buffer to a final concentration of 50 mM HEPES containing 100 mM NaCl, pH adjusted to 7.5. The MAS peptide was formulated to a 7.5 mM stock in distilled water and prior to use further diluted 1:4. […] 40 μl of enzyme was mixed with 100 μl of MnCl2 then further diluted in assay buffer to a final concentration of 16 μg/ml. To test for compound effect on MetAP2 enzyme activity, 5 μl of test compound, 10 μl of MAS substrate/amino acid oxidase mixture, 10 μl of MetAP2 was added to test wells in a 384 well black plate with blank wells containing no enzyme, replaced with 10 μl of assay buffer. All compounds were tested in duplicate on two occasions on the same day.
The plate was sealed with a TopSeal A cover and mixed briefly on an orbital mixer at 900 rpm. The plate was incubated for a further 25 minutes at 25° C. A 5× stock of Amplex buffer was prepared (0.25M sodium phosphate, pH 7.4) and stored at 4° C. […] 25 μl detection reagent was added to each well of the test plate, which was re-sealed and mixed briefly on an orbital shaker.

[4] = DIO rat, 0.3 mpk sc, once a day for 11 days
[5] = 6 mpk, subcutaneous, once every three days, Gestation Days 6-18, pregnant rats
[6] = DIO mouse, 0.3 mpk sc, once a day for 10 days
[7] = DIO rat, 1.0 mpk sc, once a day for 11 days
[8] = DIO mouse, once a day for 10 days

Sequence of recombinant human MetAP2 (P50579 whole entry): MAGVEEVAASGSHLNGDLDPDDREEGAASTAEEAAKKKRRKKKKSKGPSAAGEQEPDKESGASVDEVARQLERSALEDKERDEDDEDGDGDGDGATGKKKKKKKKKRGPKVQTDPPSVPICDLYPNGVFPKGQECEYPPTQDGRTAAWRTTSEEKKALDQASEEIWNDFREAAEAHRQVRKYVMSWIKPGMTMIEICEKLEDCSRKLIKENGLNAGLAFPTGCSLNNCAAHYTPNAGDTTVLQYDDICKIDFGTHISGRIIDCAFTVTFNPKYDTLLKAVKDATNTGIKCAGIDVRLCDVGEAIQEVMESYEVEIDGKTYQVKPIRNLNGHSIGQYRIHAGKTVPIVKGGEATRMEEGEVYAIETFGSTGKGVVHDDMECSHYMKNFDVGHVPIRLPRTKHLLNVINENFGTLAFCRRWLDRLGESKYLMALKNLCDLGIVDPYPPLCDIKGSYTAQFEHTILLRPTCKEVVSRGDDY

Row | Compound | inhibition in vivo at 0.3 mg/kg [1, 4] | Rat Embryofetal @6 mpk [2, 5] | inhibition in vivo at 0.3 mg/kg [3, 6] | inhibition in vivo at 1 mg/kg [1, 7] | Rat Embryofetal @6 mpk ([2]; rat, in vivo) | inhibition in vivo at 0.3 mg/kg ([3]; Mus musculus, sc) | further results
1 | CO[C@@H]1[C@H](OC(=O)/C=C/c2ccc(OCCN(C)C)cc2)CC[C@]2(CO2)[C@H]1[C@@]1(C)O[C@@H]1CC=C(C)C [A, [(3R,6R,7S,8S)-7-methoxy-8-[(2R,3R)-2-methyl-3-(3-methylbut-2-enyl)oxiran-2-yl]-2-oxaspiro[2.5]octan-6-yl] (E)-3-[4-[2-(dimethylamino)ethoxy]phenyl]prop-2-enoate, reference compound] | 20% | Positive | 18% | – | – | – | –
2 | CO[C@@H]1[C@H](OC(=O)N2CC(CCN3CCOCC3)C2)CC[C@]2(CO2)[C@H]1[C@@]1(C)O[C@@H]1CC=C(C)C [Example 1, (3R,4S,5S,6R)-5-methoxy-4-((2R,3R)-2-methyl-3-(3-methylbut-2-en-1-yl)oxiran-2-yl)-1-oxaspiro[2.5]octan-6-yl 3-(2-morpholinoethyl)azetidine-1-carboxylate] | 5.7% | Negative | 16.8% | 7.7% | – | – | –
3 | CO[C@@H]1[C@H](OC(=O)N2CC(CCN3CC(F)(F)C3)C2)CC[C@]2(CO2)[C@H]1[C@@]1(C)O[C@@H]1CC=C(C)C [Example 2, (3R,4S,5S,6R)-5-methoxy-4-((2R,3R)-2-methyl-3-(3-methylbut-2-enyl)oxiran-2-yl)-1-oxaspiro[2.5]octan-6-yl 3-(2-(3,3-difluoroazetidin-1-yl)ethyl)azetidine-1-carboxylate] | 5.7% | Negative | 19.7% | 6.4% | – | – | inhibition in vivo at 0.1 mg/kg [3, 8]: 14.2%; inhibition in vivo at 1 mg/kg [3, 8]: 24.2%
4 | CO[C@@H]1[C@H](OC(=O)N2CC(CCN3CC(O)C3)C2)CC[C@]2(CO2)[C@H]1[C@@]1(C)O[C@@H]1CC=C(C)C [Example 6, (3R,4S,5S,6R)-5-methoxy-4-((2R,3R)-2-methyl-3-(3-methylbut-2-enyl)oxiran-2-yl)-1-oxaspiro[2.5]octan-6-yl 3-(2-(3-hydroxyazetidin-1-yl)ethyl)azetidine-1-carboxylate formate] | – | – | – | – | Positive | 11.8% | inhibition in vivo at 0.3 mg/kg ([1]; Rattus norvegicus, sc): 0.8%; inhibition in vivo at 1 mg/kg ([1]; Rattus norvegicus, sc): 4.6%
5 | CO[C@@H]1[C@H](OC(=O)N2CC(CCN3CC(C)(O)C3)C2)CC[C@]2(CO2)[C@H]1[C@@]1(C)O[C@@H]1CC=C(C)C [Example 9, (3R,4S,5S,6R)-5-methoxy-4-((2R,3R)-2-methyl-3-(3-methylbut-2-enyl)oxiran-2-yl)-1-oxaspiro[2.5]octan-6-yl 3-(2-(3-hydroxy-3-methylazetidin-1-yl)ethyl)azetidine-1-carboxylate formate] | – | – | – | – | Positive | 7.4% | inhibition in vivo at 0.3 mg/kg ([1]; Rattus norvegicus, sc): 5.5%; inhibition in vivo at 1 mg/kg ([1]; Rattus norvegicus, sc): 4.8%
6 | CO[C@@H]1[C@H](OC(=O)N2CC(CCN3CC4C(C3)C4(F)F)C2)CC[C@]2(CO2)[C@H]1[C@@]1(C)O[C@@H]1CC=C(C)C (stereo partly drawn) [Example 22, (3R,4S,5S,6R)-5-methoxy-4-((2R,3R)-2-methyl-3-(3-methylbut-2-enyl)oxiran-2-yl)-1-oxaspiro[2.5]octan-6-yl 3-(2-(6,6-difluoro-3-azabicyclo[3.1.0]hexan-3-yl)ethyl)azetidine-1-carboxylate formate] | – | – | – | – | Negative | 14% | –
7 | CNC(=O)OC1CN(C(=O)O[C@@H]2CC[C@]3(CO3)[C@@H]([C@@]3(C)O[C@@H]3CC=C(C)C)[C@@H]2OC)C1 [Example 74, (3R,4S,5S,6R)-5-methoxy-4-((2R,3R)-2-methyl-3-(3-methylbut-2-enyl)oxiran-2-yl)-1-oxaspiro[2.5]octan-6-yl 3-(methylcarbamoyloxy)azetidine-1-carboxylate] | 7.9% | Negative | 12.3% | 6% | – | – | IC50 (recombinant human MetAP2; recombinant human MetAP2, MAS peptide substrate, 25 minutes at 25° C): < 50 nM
8 | CO[C@@H]1[C@H](OC(=O)N2CC(OC(=O)N3CCN(C)CC3)C2)CC[C@]2(CO2)[C@H]1[C@@]1(C)O[C@@H]1CC=C(C)C [Example 78, 1-(((3R,4S,5S,6R)-5-methoxy-4-((2R,3R)-2-methyl-3-(3-methylbut-2-enyl)oxiran-2-yl)-1-oxaspiro[2.5]octan-6-yloxy)carbonyl)azetidin-3-yl 4-methylpiperazine-1-carboxylate] | 1.2% | Positive | 10.7% | – | – | – | –
9 | CO[C@@H]1[C@H](OC(=O)N2CC(OC(=O)N3CCN(CC(F)(F)F)CC3)C2)CC[C@]2(CO2)[C@H]1[C@@]1(C)O[C@@H]1CC=C(C)C [Example 81, 1-(((3R,4S,5S,6R)-5-methoxy-4-((2R,3R)-2-methyl-3-(3-methylbut-2-enyl)oxiran-2-yl)-1-oxaspiro[2.5]octan-6-yloxy)carbonyl)azetidin-3-yl 4-(2,2,2-trifluoroethyl)piperazine-1-carboxylate] | – | Positive | 16.9% | – | – | – | –
10 | CCN(CC)CCNC(=O)CCC1CN(C(=O)O[C@@H]2CC[C@]3(CO3)[C@@H]([C@@]3(C)O[C@@H]3CC=C(C)C)[C@@H]2OC)C1 [Example 88, (3R,4S,5S,6R)-5-methoxy-4-((2R,3R)-2-methyl-3-(3-methylbut-2-enyl)oxiran-2-yl)-1-oxaspiro[2.5]octan-6-yl 3-(3-(2-(diethylamino)ethylamino)-3-oxopropyl)azetidine-1-carboxylate formate] | – | – | – | – | Positive | 9% | inhibition in vivo at 0.3 mg/kg ([1]; Rattus norvegicus, sc): 4.4%; IC50 (recombinant human MetAP2): < 50 nM
11 | CO[C@@H]1[C@H](OC(=O)N2CC(Cc3ccc(C)nc3)C2)CC[C@]2(CO2)[C@H]1[C@@]1(C)O[C@@H]1CC=C(C)C [Example 101, (3R,4S,5S,6R)-5-methoxy-4-((2R,3R)-2-methyl-3-(3-methylbut-2-enyl)oxiran-2-yl)-1-oxaspiro[2.5]octan-6-yl 3-((6-methylpyridin-3-yl)methyl)azetidine-1-carboxylate] | 3.9% | Positive | 15.6% | – | – | – | –
12 | CCN(CC)CCCC1CN(C(=O)O[C@@H]2CC[C@]3(CO3)[C@@H]([C@@]3(C)O[C@@H]3CC=C(C)C)[C@@H]2OC)C1 [Example 104, (3R,4S,5S,6R)-5-methoxy-4-((2R,3R)-2-methyl-3-(3-methylbut-2-enyl)oxiran-2-yl)-1-oxaspiro[2.5]octan-6-yl 3-(3-(diethylamino)propyl)azetidine-1-carboxylate] | 1.2% | Positive | 6.4% | 9.9% | – | – | inhibition in vivo at 0.03 mg/kg ([3]; DIO mouse, 0.03 mpk sc, once a day for 10 days): -0.9%; inhibition in vivo at 0.1 mg/kg [3, 8]: 8.3%; inhibition in vivo at 1 mg/kg [3, 8]: 10.9%
